From patent US20030021810A1 (priority 2001, published 2003)

Assays:
Format in all cases: cell-based
glioma cells [1] = test: release of mature MMP-2 into conditioned media (Western blot, gelatinase activity assay); conditions: 50 μM
Experimental: For these experiments, glioma cells were plated in 96 well (5000 cells/well) or 24 well plates (2.5×10^4/well) in serum containing medium (SCM). After overnight incubation, cell cultures were washed and incubated with serum free medium (SFM) for 24 hrs. Cells were then treated with His-Cltx at concentrations ranging from 30 nM to 3000 nM for 10 min or 30 min at 37° C. Cells were washed and replenished with serum free medium and at post-incubation periods of 10 min, 30 min and 24 hrs, conditioned media was collected from all samples and analyzed for matrix-metalloproteinase-2 activity by gelatinase activity assay as well as Western blots analysis for detection of matrix-metalloproteinase-2 protein. Cells treated with irrelevant His-protein were used as a negative control (untreated cells). […] Conditioned media from 10 wells were pooled for gelatinase activity assay as well as western blot analysis and data shown herein represents an average of three experiments.

glioma cells [2] = test: in situ zymography of cell surface gelatinolytic activity; conditions: 50 μM, 30 minutes at 37° C.
Experimental: FITC-labeled DQ gelatin which is intramolecularly quenched (Molecular Probes, Eugene, Oreg.) was used as a substrate for degradation by gelatinases as reported earlier (Oh et al., 1999). Proteolysis by gelatinases yields cleaved FITC-gelatin peptides and the localization of this fluorescence indicates the sites of net gelatinolytic activity. Briefly, glioma cells were plated on 12 mm coverslips. […] Untreated cells served as negative control for this experiment. Cells were then washed with PBS and then incubated with zymography reaction buffer (0.05 M Tris-HCl, 0.15 M NaCl, 5 mM CaCl2 and 0.2 mM NaN3, pH 7.6- the high concentration of azide will prevent the gelatin from phagocytosing and thus allow cell surface gelatinolytic activity to occur) containing 100 μg/ml DQ gelatin at 37° C. overnight. At the end of the incubation period, without fixation or further washes, gelatinolytic activity of the MMP-s was localized and photographed by fluorescence microscopy and the images were acquired by Spot digital camera.

glioma cells [3] = test: matrigel invasion assay
Text: Matrigel matrix is a reconstituted basement membrane isolated from Englebreth-Holm-Swarm (EHS) mouse sarcoma, a tumor rich in extracellular matrix proteins. Matrigel-invasion chamber consisted of falcon cell culture inserts of 8 μm pore-size with a uniform layer of matrigel matrix that occludes the membrane pores. […] Cells which remained in the upper chamber were scrubbed off the inserts and the invaded cells were fixed and stained with crystal violet.

c1cnc2c(c1)ccc1cccnc12 [1-10 phenanthroline]
release of MMP-2 into the medium (glioma cells [1]): blocked the release
inhibition of cell surface gelatinolytic activity versus 300 nM chlorotoxin (glioma cells [2]): comparable
inhibition of invasion compared with chlorotoxin (glioma cells [3]; glioma cells): essentially identical inhibition
change of inhibition of glioma invasion (glioma cells [3]; treatment with Filipin): only minimally affected
